Test results: patent US20060223996A1, “IL-12 modulatory compounds” (Synta Pharmaceuticals Corp., priority 2004, published 2006)

Tested on: IL-12
Assay: Human in vitro assay: inhibition of IL-12 production in IFNγ/LPS- or IFNγ/SAC-stimulated human PBMC or THP-1 cells (ELISA)
Type: cell-based
Details: read-out: IC50 Range (representative in vitro IC50 data)
Excerpt: The biological activities of a heterocyclic compound can be evaluated by a number of cell-based assays. One of such assays can be conducted using cells from human peripheral blood mononuclear cells (PBMC) or human monocytic cell line (THP-1). The cells are stimulated with a combination of human interferon-γ (IFNγ) and lipopolysaccharide or a combination of IFNγ and Staphylococcus aureus Cowan I in the presence of a test compound. The level of inhibition of IL-12 production can be measured by determining the amount of p70 by using a sandwich ELISA assay with anti-human IL-12 antibodies. IC50 of the test compound can then be determined. Specifically, PBMC or THP-1 cells are incubated with the test compound. Cell viability was assessed using the bioreduction of MTS [3-(4,5-dimethylthiazol-2-yl)-5-(3-carboxymethoxyphenyl)-2-(4-sulfophenyl)-2H-tetrazolium](Promega, Madison, Wis.).
Human In Vitro Assay. Human PBMC were isolated by centrifugation using Ficoll-Paque (Pharmacia Biotech, Uppsala, Sweden) and prepared in RPMI medium supplemented with 10% fetal calf serum (FCS), 100 U/mL penicillin, and 100 μg/mL streptomycin. PBMC were plated in wells of a 96-well plate at a concentration of 5×10^5 cells/well, and primed by adding IFNγ (30 U/mL) for 22 h and stimulated by adding LPS (1 μg/mL), or by adding IFNγ (100 U/mL) and then stimulated by adding SAC (0.01%). A test pyrimidine compound was dissolved in DMSO, and added to wells of the 96-well plate. The final DMSO concentration was adjusted to 0.25% in all cultures, including the compound-free control. Human THP-1 cells were plated in wells, primed by adding IFNγ (100 U/mL) for 22 h and stimulated by adding SAC (0.025%) in the presence of different concentrations of the pyrimidine compound. Cell-free supernatants were taken 18 h later for measurement of cytokines. Cell viability was assessed using the bioreduction of MTS. Cell survival was estimated by determining the ratio of the absorbance in compound-treated groups versus compound-free control.
The supernatant was assayed for the amount of IL-12p40, IL-12p70, or IL-10 by using a sandwich ELISA with anti-human antibodies, i.e., a Human IL-12 p40 ELISA kit from R&D Systems (Berkeley, Calif.), and a Human IL-12 p70 or IL-10 ELISA kit from Endogen (Cambridge, Mass.). Assays were based on the manufacturer's instructions.
The biological activities of pyrimidine compounds were tested on human PBMC or THP-1 cells.

Structure (SMILES) | IC50 [µM]
Cc1[nH]c2ccc(NC(=O)c3cc(OCCN4CCNCC4)nc(N4CCOCC4)n3)cc2c1C [Compound 246, N-(2,3-dimethyl-1H-indol-5-yl)-2-morpholino-6-(2-(piperazin-1-yl)ethoxy)pyrimidine-4-carboxamide] | < 1
CC(=O)N1CCN(c2cc(NC(=O)Nc3ccc4[nH]c(C)c(C)c4c3)nc(N3CCOCC3)n2)CC1 [Compound 264, 1-(6-(4-acetylpiperazin-1-yl)-2-morpholinopyrimidin-4-yl)-3-(2,3-dimethyl-1H-indol-5-yl)urea] | < 1
O=C(Nc1ccc2c(c1)OCO2)Nc1cc(N2CCOCC2)nc(OCCN2CCOCC2)n1 [Compound 123, 1-Benzo[1,3]dioxol-5-yl-3-[6-morpholin-4-yl-2-(2-morpholin-4-yl-ethoxy)-pyrimidin-4-yl]-urea] | ≥ 1
Cc1[nH]c2ccc(NC(=O)c3cc(OCCO)nc(N4CCOCC4)n3)cc2c1C [Compound 307, 6-(2-Hydroxy-ethoxy)-2-morpholin-4-yl-pyrimidine-4-carboxylic acid (2,3-dimethyl-1H-indol-5-yl)-amide] | < 1
Cc1[nH]c2ccc(NC(=O)c3cc(Nc4ccc5[nH]c(C)c(C)c5c4)nc(N4CCOCC4)n3)cc2c1C [Compound 255, N-(2,3-dimethyl-1H-indol-5-yl)-6-(2,3-dimethyl-1H-indol-5-ylamino)-2-morpholinopyrimidine-4-carboxamide] | < 1
O=C(Nc1cccc(C(F)(F)F)c1)Nc1cc(N2CCOCC2)nc(OCCN2CCOCC2)n1 [Compound 121, 1-[6-Morpholin-4-yl-2-(2-morpholin-4-yl-ethoxy)-pyrimidin-4-yl]-3-(3-trifluoromethyl-phenyl)-urea] | < 1
Cc1[nH]c2ccc(NC(=O)c3cc(N4CCOCC4)nc(N4CCOCC4)n3)cc2c1C [Compound 22, 2,6-Di-morpholin-4-yl-pyrimidine-4-carboxylic acid (2,3-dimethyl-1H-indol-5-yl)-amide] | < 1
CCN(CC)C(=O)COc1cc(C(=O)Nc2ccc3[nH]c(C)c(C)c3c2)nc(N2CCOCC2)n1 [Compound 256, 6-(2-(diethylamino)-2-oxoethoxy)-N-(2,3-dimethyl-1H-indol-5-yl)-2-morpholinopyrimidine-4-carboxamide] | < 1
Cc1c(C)n(C)c2ccc(N(C)C(=O)c3cc(OCCN4CCOCC4)nc(N4CCOCC4)n3)cc12 [Compound 31, 2-Morpholin-4-yl-6-(2-morpholin-4-yl-ethoxy)-pyrimidine-4-carboxylic acid methyl-(1,2,3-trimethyl-1H-indol-5-yl)-amide] | ≥ 1
O=C(c1cc(OCCN2CCOCC2)nc(N2CCOCC2)n1)n1ccc2ccccc21 [Compound 54, Indol-1-yl-[2-morpholin-4-yl-6-(2-morpholin-4-yl-ethoxy)-pyrimidin-4-yl]-methanone] | ≥ 1
O=C(Nc1cc(OCCc2ccccn2)nc(N2CCOCC2)n1)c1ccc2[nH]ccc2c1 [Compound 73, 1H-Indole-5-carboxylic acid [2-morpholin-4-yl-6-(2-pyridin-2-yl-ethoxy)-pyrimidin-4-yl]-amide] | ≥ 1
COCCN(C)c1cc(C(=O)Nc2ccc3cnn(C)c3c2)nc(N2CCOCC2)n1 [Compound 217, 6-((2-methoxyethyl)(methyl)amino)-N-(1-methyl-1H-indazol-6-yl)-2-morpholinopyrimidine-4-carboxamide] | ≥ 1
COCCN(C)c1cc(NC(=O)Nc2ccc3[nH]c(C)c(C)c3c2)nc(N2CCOCC2)n1 [Compound 265, 1-(2,3-dimethyl-1H-indol-5-yl)-3-(6-((2-methoxyethyl)(methyl)amino)-2-morpholinopyrimidin-4-yl)urea] | < 1
CCc1c[nH]c2ccc(NC(=O)c3cc(N4CCCCC4)nc(N4CCOCC4)n3)cc12 [Compound 179, 2-Morpholin-4-yl-6-piperidin-1-yl-pyrimidine-4-carboxylic acid (3-ethyl-1H-indol-5-yl)-amide] | < 1
Cc1ccc(NC(=O)c2cc(OCCN3CCOCC3)nc(N3CCOCC3)n2)cn1 [Compound 297, 2-Morpholin-4-yl-6-(2-morpholin-4-yl-ethoxy)-pyrimidine-4-carboxylic acid (6-methyl-pyridin-3-yl)-amide] | ≥ 1
Cc1ccc(NC(=O)Nc2cc(N3CCOCC3)nc(OCCN3CCOCC3)n2)cc1C [Compound 122, 1-(3,4-Dimethyl-phenyl)-3-[6-morpholin-4-yl-2-(2-morpholin-4-yl-ethoxy)-pyrimidin-4-yl]-urea] | ≥ 1
Cc1[nH]c2ccc(NC(=O)c3cc(OCCc4ccccn4)nc(N4CCOCC4)n3)cc2c1C [Compound 2, 2-Morpholin-4-yl-6-(2-pyridin-2-yl-ethoxy)-pyrimidine-4-carboxylic acid (2,3-dimethyl-1H-indol-5-yl)-amide] | < 1
COCCN(C)c1cc(C(=O)Nc2cccc(C(F)(F)F)c2)nc(N2CCOCC2)n1 [Compound 209, 6-((2-methoxyethyl)(methyl)amino)-2-morpholino-N-(3-(trifluoromethyl)phenyl)pyrimidine-4-carboxamide] | ≥ 1
Cc1[nH]c2ccc(NC(=O)c3cc(OCCN4CCOCC4)cc(N4CCOCC4)n3)cc2c1C [Compound 29, 6-Morpholin-4-yl-4-(2-morpholin-4-yl-ethoxy)-pyridine-2-carboxylic acid (2,3-dimethyl-1H-indol-5-yl)-amide] | < 1
Cc1[nH]c2ccc(NC(=O)c3cc(NCCN(C)C)nc(N4CCOCC4)n3)cc2c1C [Compound 95, 6-(2-Dimethylamino-ethylamino)-2-morpholin-4-yl-pyrimidine-4-carboxylic acid (2,3-dimethyl-1H-indol-5-yl)-amide] | < 1
O=C(Nc1cc(N2CCOCC2)nc(OCCc2ccccn2)n1)c1ccc2[nH]ccc2c1 [Compound 74, 1H-Indole-5-carboxylic acid [6-morpholin-4-yl-2-(2-pyridin-2-yl-ethoxy)-pyrimidin-4-yl]-amide] | ≥ 1
CN(C)c1cccc(NC(=O)c2cc(OCCN3CCOCC3)cc(N3CCOCC3)n2)c1 [Compound 155, 6-Morpholin-4-yl-4-(2-morpholin-4-yl-ethoxy)-pyridine-2-carboxylic acid (3-dimethylamino-phenyl)-amide] | < 1
COCCN(C)c1cc(C(=O)Nc2cccc(S(C)(=O)=O)c2)nc(N2CCOCC2)n1 [Compound 231, 6-[(2-Methoxy-ethyl)-methyl-amino]-2-morpholin-4-yl-pyrimidine-4-carboxylic acid (3-methanesulfonyl-phenyl)-amide] | ≥ 1
CCc1c(C)[nH]c2ccc(NC(=O)Nc3cc(N4CCN(C(C)=O)CC4)nc(N4CCOCC4)n3)cc12 [Compound 266, 1-(6-(4-acetylpiperazin-1-yl)-2-morpholinopyrimidin-4-yl)-3-(3-ethyl-2-methyl-1H-indol-5-yl)urea] | < 1
Cc1[nH]c2ccc(NC(=O)c3cc(NCC(=O)N4CCC(O)CC4)nc(N4CCOCC4)n3)cc2c1C [Compound 100, 6-[2-(4-Hydroxy-piperidin-1-yl)-2-oxo-ethylamino]-2-morpholin-4-yl-pyrimidine-4-carboxylic acid (2,3-dimethyl-1H-indol-5-yl)-amide] | < 1
O=C(Nc1cccc(-n2cccn2)c1)c1cc(OCC(=O)N2CCCCC2)nc(N2CCOCC2)n1 [Compound 115, 2-Morpholin-4-yl-6-(2-oxo-2-piperidin-1-yl-ethoxy)-pyrimidine-4-carboxylic acid (3-pyrazol-1-yl-phenyl)-amide] | < 1
